The record followed here is PubChem BioAssay AID2060497 (Molecular Pharmacology Branch, DTP, NCI, 2025).
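Further: spheroids exposed to compounds for one week before readout; percent viability relative to DMSO vehicle wells taken as 100%.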

One assay relates to 317291-083-R-J1-PDC complex spheroids, viability. Put plainly: Anticancer human tumor 317291-083-R-J1-PDC patient-derived soft tissue sarcoma cell line growth inhibition [GQUAD]. To be noted: second compound 0.316 µM; first compound 1 µM; active compounds read low. In outline:
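Tumor cells were grown as complex spheroids with HUVEC endothelial cells and mesenchymal stem cells as stroma. G-quadruplex stabilizers were combined with targeted agents over half-log dilutions from near the clinical Cmax, or from 10 microM.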
For the compound `CC1COCCN1c1cc(C2(O)CC3CCC(C2)O3)c2cnn(-c3ccn[nH]3)c2n1` (configuration not stated) + CN(C)c1ccc(Nc2c3ccc(NC(=O)CCN4CCCC4)cc3nc3cc(NC(=O)CCN4CCCC4)ccc23)cc1, the viability, T/C – broadly, the result in the treated group divided by that in the control group, in per cent – was 12.1%.

Regarding `COc1cccc2c1C(=O)c1c(O)c3c(c(O)c1C2=O)CC(O)(C(=O)CO)CC3OC1CC(N)C(O)C(C)O1` (configuration not stated) + Cc1cnc(CNC(=O)c2c(=O)c3ccc(N4CCCN(C)CC4)nc3n3c2sc2ccccc23)cn1, the viability, T/C is 6.47%.

As to `Nc1ccn(C2OC(CO)C(O)C2(F)F)c(=O)n1` (configuration not stated) + Cc1cnc(CNC(=O)c2c(=O)c3ccc(N4CCCN(C)CC4)nc3n3c2sc2ccccc23)cn1, the viability, T/C was 8.54%.

Regarding `COc1cc(C2c3cc4c(cc3C(OC3OC5COC(C)OC5C(O)C3O)C3COC(=O)C23)OCO4)cc(OC)c1O` (configuration not stated) + CN(C)c1ccc(Nc2c3ccc(NC(=O)CCN4CCCC4)cc3nc3cc(NC(=O)CCN4CCCC4)ccc23)cc1, the viability, T/C is 26.1%.

Staying with this assay, now noted: second compound 0.316 µM; first compound 3.16 µM; active compounds read low.
With `CC1COCCN1c1cc(C2(O)CC3CCC(C2)O3)c2cnn(-c3ccn[nH]3)c2n1` (configuration not stated) + CN(C)c1ccc(Nc2c3ccc(NC(=O)CCN4CCCC4)cc3nc3cc(NC(=O)CCN4CCCC4)ccc23)cc1, the viability, T/C is 12.8%.

Consider `COc1cccc2c1C(=O)c1c(O)c3c(c(O)c1C2=O)CC(O)(C(=O)CO)CC3OC1CC(N)C(O)C(C)O1` (configuration not stated) + Cc1cnc(CNC(=O)c2c(=O)c3ccc(N4CCCN(C)CC4)nc3n3c2sc2ccccc23)cn1, for which the viability, T/C is 2.05%.

For the compound `Nc1ccn(C2OC(CO)C(O)C2(F)F)c(=O)n1` (configuration not stated) + Cc1cnc(CNC(=O)c2c(=O)c3ccc(N4CCCN(C)CC4)nc3n3c2sc2ccccc23)cn1, the viability, T/C was 14.6%.

Regarding `COc1cc(C2c3cc4c(cc3C(OC3OC5COC(C)OC5C(O)C3O)C3COC(=O)C23)OCO4)cc(OC)c1O` (configuration not stated) + CN(C)c1ccc(Nc2c3ccc(NC(=O)CCN4CCCC4)cc3nc3cc(NC(=O)CCN4CCCC4)ccc23)cc1, the viability, T/C was 20.1%.

The assay is the same for the next values; noted with them: second compound 0.316 µM; first compound 10 µM; active compounds read low.
For `CC1COCCN1c1cc(C2(O)CC3CCC(C2)O3)c2cnn(-c3ccn[nH]3)c2n1` (configuration not stated) + CN(C)c1ccc(Nc2c3ccc(NC(=O)CCN4CCCC4)cc3nc3cc(NC(=O)CCN4CCCC4)ccc23)cc1, the viability, T/C is 2.37%.

Take `COc1cccc2c1C(=O)c1c(O)c3c(c(O)c1C2=O)CC(O)(C(=O)CO)CC3OC1CC(N)C(O)C(C)O1` (configuration not stated) + Cc1cnc(CNC(=O)c2c(=O)c3ccc(N4CCCN(C)CC4)nc3n3c2sc2ccccc23)cn1: the viability, T/C was 2.05%.

`Nc1ccn(C2OC(CO)C(O)C2(F)F)c(=O)n1` (configuration not stated) + Cc1cnc(CNC(=O)c2c(=O)c3ccc(N4CCCN(C)CC4)nc3n3c2sc2ccccc23)cn1: the viability, T/C was 8.2%.

In the case of `COc1cc(C2c3cc4c(cc3C(OC3OC5COC(C)OC5C(O)C3O)C3COC(=O)C23)OCO4)cc(OC)c1O` (configuration not stated) + CN(C)c1ccc(Nc2c3ccc(NC(=O)CCN4CCCC4)cc3nc3cc(NC(=O)CCN4CCCC4)ccc23)cc1, the viability, T/C is 12.3%.

The same assay, now with this note: second compound 1 µM; first compound 0.0316 µM; active compounds read low.
Turning to `CC1COCCN1c1cc(C2(O)CC3CCC(C2)O3)c2cnn(-c3ccn[nH]3)c2n1` (configuration not stated) + CN(C)c1ccc(Nc2c3ccc(NC(=O)CCN4CCCC4)cc3nc3cc(NC(=O)CCN4CCCC4)ccc23)cc1, the viability, T/C was 23.5%.

In the case of `COc1cccc2c1C(=O)c1c(O)c3c(c(O)c1C2=O)CC(O)(C(=O)CO)CC3OC1CC(N)C(O)C(C)O1` (configuration not stated) + Cc1cnc(CNC(=O)c2c(=O)c3ccc(N4CCCN(C)CC4)nc3n3c2sc2ccccc23)cn1, the viability, T/C was 38.1%.

As to `Nc1ccn(C2OC(CO)C(O)C2(F)F)c(=O)n1` (configuration not stated) + Cc1cnc(CNC(=O)c2c(=O)c3ccc(N4CCCN(C)CC4)nc3n3c2sc2ccccc23)cn1, the viability, T/C is 31.5%.

With `COc1cc(C2c3cc4c(cc3C(OC3OC5COC(C)OC5C(O)C3O)C3COC(=O)C23)OCO4)cc(OC)c1O` (configuration not stated) + CN(C)c1ccc(Nc2c3ccc(NC(=O)CCN4CCCC4)cc3nc3cc(NC(=O)CCN4CCCC4)ccc23)cc1, the viability, T/C is 62.1%.

Staying with this assay, now noted: second compound 1 µM; first compound 0.1 µM; active compounds read low.
With `CC1COCCN1c1cc(C2(O)CC3CCC(C2)O3)c2cnn(-c3ccn[nH]3)c2n1` (configuration not stated) + CN(C)c1ccc(Nc2c3ccc(NC(=O)CCN4CCCC4)cc3nc3cc(NC(=O)CCN4CCCC4)ccc23)cc1, the viability, T/C was 10.9%.

As for `COc1cccc2c1C(=O)c1c(O)c3c(c(O)c1C2=O)CC(O)(C(=O)CO)CC3OC1CC(N)C(O)C(C)O1` (configuration not stated) + Cc1cnc(CNC(=O)c2c(=O)c3ccc(N4CCCN(C)CC4)nc3n3c2sc2ccccc23)cn1, the viability, T/C was 18.4%.

As for `Nc1ccn(C2OC(CO)C(O)C2(F)F)c(=O)n1` (configuration not stated) + Cc1cnc(CNC(=O)c2c(=O)c3ccc(N4CCCN(C)CC4)nc3n3c2sc2ccccc23)cn1, the viability, T/C was 21.2%.

`COc1cc(C2c3cc4c(cc3C(OC3OC5COC(C)OC5C(O)C3O)C3COC(=O)C23)OCO4)cc(OC)c1O` (configuration not stated) + CN(C)c1ccc(Nc2c3ccc(NC(=O)CCN4CCCC4)cc3nc3cc(NC(=O)CCN4CCCC4)ccc23)cc1: the viability, T/C was 37.9%.

Still in this assay, the particulars now being: second compound 1 µM; first compound 0.316 µM; active compounds read low.
As to `CC1COCCN1c1cc(C2(O)CC3CCC(C2)O3)c2cnn(-c3ccn[nH]3)c2n1` (configuration not stated) + CN(C)c1ccc(Nc2c3ccc(NC(=O)CCN4CCCC4)cc3nc3cc(NC(=O)CCN4CCCC4)ccc23)cc1, the viability, T/C was 8.42%.

For the compound `COc1cccc2c1C(=O)c1c(O)c3c(c(O)c1C2=O)CC(O)(C(=O)CO)CC3OC1CC(N)C(O)C(C)O1` (configuration not stated) + Cc1cnc(CNC(=O)c2c(=O)c3ccc(N4CCCN(C)CC4)nc3n3c2sc2ccccc23)cn1, the viability, T/C was 15.9%.

On to `Nc1ccn(C2OC(CO)C(O)C2(F)F)c(=O)n1` (configuration not stated) + Cc1cnc(CNC(=O)c2c(=O)c3ccc(N4CCCN(C)CC4)nc3n3c2sc2ccccc23)cn1, for which the viability, T/C was 26.3%.

On to `COc1cc(C2c3cc4c(cc3C(OC3OC5COC(C)OC5C(O)C3O)C3COC(=O)C23)OCO4)cc(OC)c1O` (configuration not stated) + CN(C)c1ccc(Nc2c3ccc(NC(=O)CCN4CCCC4)cc3nc3cc(NC(=O)CCN4CCCC4)ccc23)cc1, for which the viability, T/C was 20.7%.

The same assay, now with this note: second compound 1 µM; first compound 1 µM; active compounds read low.
For `CC1COCCN1c1cc(C2(O)CC3CCC(C2)O3)c2cnn(-c3ccn[nH]3)c2n1` (configuration not stated) + CN(C)c1ccc(Nc2c3ccc(NC(=O)CCN4CCCC4)cc3nc3cc(NC(=O)CCN4CCCC4)ccc23)cc1, the viability, T/C is 5.55%.

On to `COc1cccc2c1C(=O)c1c(O)c3c(c(O)c1C2=O)CC(O)(C(=O)CO)CC3OC1CC(N)C(O)C(C)O1` (configuration not stated) + Cc1cnc(CNC(=O)c2c(=O)c3ccc(N4CCCN(C)CC4)nc3n3c2sc2ccccc23)cn1, for which the viability, T/C was 12.2%.

Regarding `Nc1ccn(C2OC(CO)C(O)C2(F)F)c(=O)n1` (configuration not stated) + Cc1cnc(CNC(=O)c2c(=O)c3ccc(N4CCCN(C)CC4)nc3n3c2sc2ccccc23)cn1, the viability, T/C was 6.79%.

Take `COc1cc(C2c3cc4c(cc3C(OC3OC5COC(C)OC5C(O)C3O)C3COC(=O)C23)OCO4)cc(OC)c1O` (configuration not stated) + CN(C)c1ccc(Nc2c3ccc(NC(=O)CCN4CCCC4)cc3nc3cc(NC(=O)CCN4CCCC4)ccc23)cc1: the viability, T/C was 15.7%.

The assay is the same for the next values; noted with them: second compound 1 µM; first compound 3.16 µM; active compounds read low.
Regarding `CC1COCCN1c1cc(C2(O)CC3CCC(C2)O3)c2cnn(-c3ccn[nH]3)c2n1` (configuration not stated) + CN(C)c1ccc(Nc2c3ccc(NC(=O)CCN4CCCC4)cc3nc3cc(NC(=O)CCN4CCCC4)ccc23)cc1, the viability, T/C is 7.51%.

Regarding `COc1cccc2c1C(=O)c1c(O)c3c(c(O)c1C2=O)CC(O)(C(=O)CO)CC3OC1CC(N)C(O)C(C)O1` (configuration not stated) + Cc1cnc(CNC(=O)c2c(=O)c3ccc(N4CCCN(C)CC4)nc3n3c2sc2ccccc23)cn1, the viability, T/C is 1.05%.

`Nc1ccn(C2OC(CO)C(O)C2(F)F)c(=O)n1` (configuration not stated) + Cc1cnc(CNC(=O)c2c(=O)c3ccc(N4CCCN(C)CC4)nc3n3c2sc2ccccc23)cn1: the viability, T/C was 8.1%.

For the compound `COc1cc(C2c3cc4c(cc3C(OC3OC5COC(C)OC5C(O)C3O)C3COC(=O)C23)OCO4)cc(OC)c1O` (configuration not stated) + CN(C)c1ccc(Nc2c3ccc(NC(=O)CCN4CCCC4)cc3nc3cc(NC(=O)CCN4CCCC4)ccc23)cc1, the viability, T/C was 13.5%.

The assay is the same for the next values; noted with them: second compound 1 µM; first compound 10 µM; active compounds read low.
As to `CC1COCCN1c1cc(C2(O)CC3CCC(C2)O3)c2cnn(-c3ccn[nH]3)c2n1` (configuration not stated) + CN(C)c1ccc(Nc2c3ccc(NC(=O)CCN4CCCC4)cc3nc3cc(NC(=O)CCN4CCCC4)ccc23)cc1, the viability, T/C was 1.2%.

As for `COc1cccc2c1C(=O)c1c(O)c3c(c(O)c1C2=O)CC(O)(C(=O)CO)CC3OC1CC(N)C(O)C(C)O1` (configuration not stated) + Cc1cnc(CNC(=O)c2c(=O)c3ccc(N4CCCN(C)CC4)nc3n3c2sc2ccccc23)cn1, the viability, T/C was 1.27%.

For `Nc1ccn(C2OC(CO)C(O)C2(F)F)c(=O)n1` (configuration not stated) + Cc1cnc(CNC(=O)c2c(=O)c3ccc(N4CCCN(C)CC4)nc3n3c2sc2ccccc23)cn1, the viability, T/C was 7.55%.

`COc1cc(C2c3cc4c(cc3C(OC3OC5COC(C)OC5C(O)C3O)C3COC(=O)C23)OCO4)cc(OC)c1O` (configuration not stated) + CN(C)c1ccc(Nc2c3ccc(NC(=O)CCN4CCCC4)cc3nc3cc(NC(=O)CCN4CCCC4)ccc23)cc1: the viability, T/C was 7.56%.

Staying with this assay, now noted: second compound 3.16 µM; first compound 0.0316 µM; active compounds read low.
Regarding `CC1COCCN1c1cc(C2(O)CC3CCC(C2)O3)c2cnn(-c3ccn[nH]3)c2n1` (configuration not stated) + CN(C)c1ccc(Nc2c3ccc(NC(=O)CCN4CCCC4)cc3nc3cc(NC(=O)CCN4CCCC4)ccc23)cc1, the viability, T/C is 15.1%.

With `COc1cccc2c1C(=O)c1c(O)c3c(c(O)c1C2=O)CC(O)(C(=O)CO)CC3OC1CC(N)C(O)C(C)O1` (configuration not stated) + Cc1cnc(CNC(=O)c2c(=O)c3ccc(N4CCCN(C)CC4)nc3n3c2sc2ccccc23)cn1, the viability, T/C was 18.5%.

Consider `Nc1ccn(C2OC(CO)C(O)C2(F)F)c(=O)n1` (configuration not stated) + Cc1cnc(CNC(=O)c2c(=O)c3ccc(N4CCCN(C)CC4)nc3n3c2sc2ccccc23)cn1, for which the viability, T/C is 19%.

Regarding `COc1cc(C2c3cc4c(cc3C(OC3OC5COC(C)OC5C(O)C3O)C3COC(=O)C23)OCO4)cc(OC)c1O` (configuration not stated) + CN(C)c1ccc(Nc2c3ccc(NC(=O)CCN4CCCC4)cc3nc3cc(NC(=O)CCN4CCCC4)ccc23)cc1, the viability, T/C is 39%.

Staying with this assay, now noted: second compound 3.16 µM; first compound 0.1 µM; active compounds read low.
As to `CC1COCCN1c1cc(C2(O)CC3CCC(C2)O3)c2cnn(-c3ccn[nH]3)c2n1` (configuration not stated) + CN(C)c1ccc(Nc2c3ccc(NC(=O)CCN4CCCC4)cc3nc3cc(NC(=O)CCN4CCCC4)ccc23)cc1, the viability, T/C was 9.28%.

In the case of `COc1cccc2c1C(=O)c1c(O)c3c(c(O)c1C2=O)CC(O)(C(=O)CO)CC3OC1CC(N)C(O)C(C)O1` (configuration not stated) + Cc1cnc(CNC(=O)c2c(=O)c3ccc(N4CCCN(C)CC4)nc3n3c2sc2ccccc23)cn1, the viability, T/C is 15.8%.
